Data from the NIST ThermoML archive (doi:10.1021/acs.jced.8b00157).
Values joined by “and” are separate entries in the source; they are usually repeats but may differ in a detail not shown here. Identical values can stand only once.

Assay: an = ratio of the nth substance listed
Conditions: 100 kPa, Liquid, Buoyancy - hydrostatic balance

[F][Al]([F])[F] [aluminum fluoride] + [F-].[K+]
mass density
Conditions | a2 = 1.3 | a2 = 1.5
1013.8 K | 1821 kg/m3 | –
1014 K | 1822 kg/m3 | –
1014.2 K | 1821 kg/m3 | –
1014.4 K | 1822 kg/m3 | –
1014.5 K | 1822 kg/m3 | –
1014.9 K | 1821 kg/m3 | –
1015.1 K | 1821 kg/m3 | –
1015.2 K | 1820 kg/m3 and 1821 kg/m3 | –
1015.3 K | 1822 kg/m3 | –
1015.5 K | 1821 kg/m3 | –
1015.7 K | 1820 kg/m3 | –
1016.1 K | 1819 kg/m3 | –
1016.3 K | 1820 kg/m3 | –
1016.5 K | 1819 kg/m3 | –
1016.7 K | 1819 kg/m3 | –
1016.8 K | 1819 kg/m3 | –
1017 K | 1818 kg/m3 | –
1017.4 K | 1818 kg/m3 | –
1017.8 K | 1819 kg/m3 | –
1018 K | 1818 kg/m3 | –
1018.1 K | 1818 kg/m3 | –
1018.2 K | 1819 kg/m3 | –
1018.4 K | 1819 kg/m3 and 1816 kg/m3 | –
1018.5 K | 1818 kg/m3 | –
1018.6 K | 1817 kg/m3 | –
1018.9 K | 1816 kg/m3 | –
1019.5 K | 1818 kg/m3 | –
1019.7 K | 1816 kg/m3 | –
1019.8 K | 1817 kg/m3 | –
1019.9 K | 1817 kg/m3 and 1815 kg/m3 and 1816 kg/m3 | –
1020.3 K | 1816 kg/m3 | –
1020.5 K | 1815 kg/m3 | –
1020.8 K | 1815 kg/m3 | –
1021 K | 1816 kg/m3 | –
1021.1 K | 1816 kg/m3 | –
1021.2 K | 1814 kg/m3 | –
1021.4 K | 1815 kg/m3 | –
1021.7 K | 1816 kg/m3 and 1815 kg/m3 | –
1022 K | 1813 kg/m3 | –
1022.1 K | 1815 kg/m3 | –
1022.6 K | 1815 kg/m3 | –
1022.8 K | 1813 kg/m3 | –
1022.9 K | 1812 kg/m3 | –
1023 K | 1814 kg/m3 | –
1023.1 K | 1814 kg/m3 | –
1023.2 K | 1814 kg/m3 | –
1023.4 K | 1813 kg/m3 | –
1023.7 K | 1812 kg/m3 | –
1024 K | 1813 kg/m3 | –
1024.1 K | 1812 kg/m3 | –
1024.4 K | 1812 kg/m3 | –
1024.9 K | 1813 kg/m3 and 1811 kg/m3 | –
1025 K | 1811 kg/m3 | –
1025.2 K | 1813 kg/m3 | –
1025.6 K | 1810 kg/m3 | –
1025.7 K | 1810 kg/m3 | –
1025.8 K | 1812 kg/m3 | –
1026 K | 1812 kg/m3 | –
1026.2 K | 1812 kg/m3 | –
1026.4 K | 1810 kg/m3 | –
1026.5 K | 1809 kg/m3 | –
1026.6 K | 1810 kg/m3 | –
1026.7 K | 1811 kg/m3 | –
1026.9 K | 1809 kg/m3 | –
1027.1 K | 1810 kg/m3 | –
1027.2 K | 1808 kg/m3 | –
1027.3 K | 1811 kg/m3 | –
1027.4 K | 1808 kg/m3 | –
1027.5 K | 1809 kg/m3 | –
1027.9 K | 1809 kg/m3 | –
1028 K | 1809 kg/m3 | –
1028.1 K | 1809 kg/m3 | –
1028.3 K | 1807 kg/m3 | –
1028.6 K | 1807 kg/m3 | –
1028.7 K | 1807 kg/m3 | –
1028.9 K | 1808 kg/m3 | –
1029.1 K | 1806 kg/m3 | –
1029.3 K | 1807 kg/m3 and 1808 kg/m3 | –
1029.4 K | 1807 kg/m3 | –
1029.8 K | 1806 kg/m3 | –
1030.3 K | 1806 kg/m3 | –
1030.6 K | 1807 kg/m3 and 1806 kg/m3 | –
1030.9 K | 1805 kg/m3 | –
1031.1 K | 1806 kg/m3 and 1804 kg/m3 | –
1031.5 K | 1804 kg/m3 | –
1031.7 K | 1805 kg/m3 and 1806 kg/m3 | –
1031.8 K | 1805 kg/m3 | –
1032.3 K | 1803 kg/m3 | –
1032.5 K | 1805 kg/m3 | –
1032.6 K | 1803 kg/m3 | –
1032.7 K | 1804 kg/m3 | –
1032.9 K | 1804 kg/m3 | –
1033.1 K | 1803 kg/m3 | –
1033.3 K | 1803 kg/m3 and 1804 kg/m3 | –
1033.5 K | 1803 kg/m3 | –
1033.7 K | 1801 kg/m3 and 1802 kg/m3 | –
1033.8 K | 1803 kg/m3 | –
1033.9 K | 1804 kg/m3 | –
1034.1 K | 1802 kg/m3 | –
1034.5 K | 1801 kg/m3 | –
1034.8 K | 1802 kg/m3 and 1801 kg/m3 | –
1034.9 K | 1802 kg/m3 | –
1035.3 K | 1801 kg/m3 and 1800 kg/m3 | –
1035.6 K | 1800 kg/m3 | –
1035.7 K | 1799 kg/m3 | –
1036.4 K | 1799 kg/m3 | –
1036.6 K | 1801 kg/m3 and 1798 kg/m3 | –
1037 K | 1799 kg/m3 | –
1037.1 K | 1801 kg/m3 | –
1037.5 K | 1797 kg/m3 | –
1037.7 K | 1798 kg/m3 | –
1038.1 K | 1800 kg/m3 and 1797 kg/m3 | –
1038.2 K | 1799 kg/m3 | –
1038.4 K | 1796 kg/m3 | –
1038.5 K | 1799 kg/m3 | –
1038.6 K | 1799 kg/m3 | –
1038.9 K | 1799 kg/m3 | –
1039 K | 1796 kg/m3 | –
1039.4 K | 1799 kg/m3 | –
1039.6 K | 1795 kg/m3 | –
1039.8 K | 1795 kg/m3 | –
1039.9 K | 1798 kg/m3 | –
1040.1 K | 1795 kg/m3 | –
1040.4 K | 1795 kg/m3 | –
1040.6 K | 1798 kg/m3 and 1795 kg/m3 | –
1040.8 K | 1798 kg/m3 | –
1040.9 K | 1797 kg/m3 | –
1041 K | 1796 kg/m3 and 1797 kg/m3 | –
1041.2 K | 1795 kg/m3 | –
1042.1 K | 1796 kg/m3 | –
1042.3 K | 1794 kg/m3 | –
1042.5 K | 1796 kg/m3 | –
1042.8 K | 1793 kg/m3 and 1794 kg/m3 | –
1042.9 K | 1792 kg/m3 and 1794 kg/m3 | –
1043 K | 1793 kg/m3 | –
1043.1 K | 1795 kg/m3 | –
1043.4 K | 1795 kg/m3 | –
1043.7 K | 1795 kg/m3 | –
1043.8 K | 1794 kg/m3 | –
1043.9 K | 1794 kg/m3 and 1791 kg/m3 | –
1044.3 K | 1791 kg/m3 | –
1044.4 K | 1791 kg/m3 | –
1045 K | 1793 kg/m3 | –
1045.3 K | 1793 kg/m3 and 1790 kg/m3 | –
1045.4 K | 1789 kg/m3 | –
1045.6 K | 1792 kg/m3 | –
1045.8 K | 1793 kg/m3 | –
1046.1 K | 1793 kg/m3 | –
1046.3 K | 1789 kg/m3 | –
1046.5 K | 1789 kg/m3 | –
1046.7 K | 1792 kg/m3 and 1789 kg/m3 | –
1046.9 K | 1789 kg/m3 | –
1047 K | 1789 kg/m3 | –
1047.3 K | 1792 kg/m3 | –
1047.4 K | 1791 kg/m3 | –
1047.6 K | 1791 kg/m3 | –
1048 K | 1791 kg/m3 | –
1048.1 K | 1788 kg/m3 | –
1048.4 K | 1786 kg/m3 | –
1048.6 K | 1790 kg/m3 and 1786 kg/m3 | –
1048.8 K | 1788 kg/m3 | –
1049.4 K | 1789 kg/m3 | –
1049.5 K | 1789 kg/m3 | –
1049.6 K | 1786 kg/m3 | –
1049.7 K | 1785 kg/m3 | –
1049.9 K | 1789 kg/m3 | –
1050.5 K | 1788 kg/m3 and 1785 kg/m3 | –
1050.6 K | 1784 kg/m3 | –
1051.2 K | 1787 kg/m3 | –
1051.3 K | 1787 kg/m3 | –
1051.5 K | 1787 kg/m3 and 1783 kg/m3 and 1784 kg/m3 | –
1051.6 K | 1787 kg/m3 and 1782 kg/m3 | –
1052 K | 1783 kg/m3 | –
1052.2 K | 1786 kg/m3 and 1782 kg/m3 | –
1052.7 K | 1786 kg/m3 | –
1053.2 K | 1782 kg/m3 | –
1053.4 K | 1786 kg/m3 | –
1053.5 K | 1786 kg/m3 | –
1053.7 K | 1786 kg/m3 | –
1053.9 K | 1782 kg/m3 | –
1054.4 K | 1785 kg/m3 | –
1054.7 K | 1784 kg/m3 | –
1055.3 K | 1784 kg/m3 | –
1055.6 K | 1784 kg/m3 | –
1056 K | 1784 kg/m3 | –
1056.1 K | 1783 kg/m3 | –
1056.3 K | 1783 kg/m3 | –
1056.4 K | 1783 kg/m3 | –
1057.3 K | 1782 kg/m3 | –
1057.7 K | 1782 kg/m3 | –
1057.9 K | 1781 kg/m3 | –
1058.1 K | 1781 kg/m3 | –
1059.2 K | 1781 kg/m3 | –
1059.3 K | 1780 kg/m3 | –
1059.5 K | 1780 kg/m3 | –
1060.2 K | 1779 kg/m3 and 1780 kg/m3 | –
1060.5 K | – | 1796 kg/m3
1060.8 K | – | 1796 kg/m3
1061.1 K | 1778 kg/m3 | 1796 kg/m3
1061.2 K | 1779 kg/m3 | –
1061.3 K | 1778 kg/m3 | –
1061.5 K | 1779 kg/m3 | –
1061.6 K | 1777 kg/m3 | 1796 kg/m3
1061.9 K | – | 1795 kg/m3
1062.2 K | – | 1795 kg/m3
1062.5 K | – | 1795 kg/m3
1062.8 K | 1777 kg/m3 | –
1062.9 K | – | 1795 kg/m3
1063.2 K | 1776 kg/m3 and 1777 kg/m3 | –
1063.3 K | – | 1794 kg/m3
1063.6 K | – | 1794 kg/m3
1063.7 K | 1776 kg/m3 | –
1064.1 K | 1775 kg/m3 | 1794 kg/m3
1064.4 K | – | 1794 kg/m3
1064.6 K | 1775 kg/m3 | –
1064.7 K | – | 1793 kg/m3
1065.2 K | – | 1793 kg/m3
1065.3 K | 1775 kg/m3 | –
1065.5 K | – | 1792 kg/m3
1065.8 K | 1774 kg/m3 | –
1066 K | 1774 kg/m3 | 1792 kg/m3
1066.3 K | 1775 kg/m3 | –
1066.4 K | – | 1792 kg/m3
1066.7 K | – | 1792 kg/m3
1066.9 K | 1774 kg/m3 | –
1067 K | 1773 kg/m3 | –
1067.2 K | 1773 kg/m3 | 1791 kg/m3
1067.4 K | – | 1791 kg/m3
1067.7 K | 1772 kg/m3 | –
1067.9 K | – | 1791 kg/m3
1068.2 K | – | 1790 kg/m3
